Measured values: patent publication US8007782B2, “Combination bacteriolytic therapy for the treatment of tumors” (priority 2003, dated 2011)

Tests used:
[1] = tested on: HCT116, HuCC-T1, HT-29, SW480, B16 and DLD-1 tumors; assay: Low dose HTI-286 and L-NNA on various xenografts (FIG. 10); format: in vivo, mice; details: HTI-286 1 mg/kg without L-NNA; L-NNA 10 mg/kg without HTI-286
Text: FIG. 10A-10F Quantification of the effects of C. novyi-NT plus low doses of HTI-286 and L-NNA on various xenografts (HCT116, HuCC-T1, HT-29, SW480, B16, and DLD-1, respectively).
[…] […] The p-values are based on comparisons between L-NNA+HTI-286 and L-NNA+HTI-286+C. novyi-NT spores. The p-value is indicated only when the result was statistically significant.
All animal protocols were designed in accordance with the Guide for the Care and Use of Laboratory Animals (NIH Publication 86-23) and were approved by the Johns Hopkins University Institutional Animal Care and Use Committee. Six to eight week old mice were implanted subcutaneously on one flank with 3 to 6 million cancer cells. Establishment of tumors of 150 to 500 mm3 took 8 to 21 days, depending on the cell type. C. novyi-NT spores (300×106) and anti-microtubule agents were generally administered by a single intravenous injection through the tail vein in a total volume of 300 to 500 ul phosphate-buffered saline (PBS). Quantitative assessment of tumor growth was performed by measuring subcutaneous tumor grafts (major and minor axis) using electronic calipers. Tumor volume was calculated using the equation: length×width2×0.5. Progression free survival was defined as the length of time following treatment before any increase in tumor volume was observed. Mice were considered “cured” if no tumor was evident three months after treatment. […]

[2] = tested on: tumor blood flow in HCT116 xenografts; assay: Assessment of blood perfusion (Hoechst 33342) in HCT116 xenografts; format: in vivo, mice; details: HTI-286 1.7 mg/kg or docetaxel 50 mg/kg iv, 3 and 24 hr after treatment
Protocol: Three or 24 hours after treatment, mice were intravenously injected with Hoechst 33342 (40 mg/kg) and euthanized two minutes later. Tumors were cryosectioned and viewed by fluorescence microscopy after counter-staining with acridine orange (AO). Endothelial cells are stained blue when they have taken up the Hoechst 33342 dye. Adjacent sections were stained with MECA-32 monoclonal antibody, a vascular endothelium-specific marker. Arrows point towards normal blood vessels unaffected by HTI-286 treatment in overlying skin.
Mice bearing HCT116 xenografts of 300 to 500 mm3 were injected intravenously with anti-microtubule agents. At various times thereafter, they were intravenously injected with Hoechst 33342 (40 mg/kg), then euthanized two minutes later by CO2 narcosis. Tumors were fixed in Tissue-Tek OTC compound (Sakura Finetek, Torrance, Calif.) and stored at −80° C. Frozen sections 10 microns in thickness were prepared with a Leica Microsystems cryostat and counterstained with acridine orange, 7.5 ug/ml, in PBS for 5 minutes. […] At least three sections of each of three tumors, representing middle and distal parts of the tumor, were examined under fluorescence microscopy for each agent tested, and representative results are illustrated in the figures. […]

[3] = tested on: Glucose Transporter-1 (Glut-1); assay: Immunohistochemistry for Glut-1 (hypoxia marker) in HCT116 xenografts; format: in vivo, mice; details: HTI-286 1.7 mg/kg or docetaxel 50 mg/kg iv, 6 hr after treatment
Protocol: Mice were euthanized six hours after treatment. Tumors were sectioned and H & E stained. Adjacent sections were stained for Glut-1 expression, a marker for hypoxia. Cells positive for Glut-1 appear brown. Arrows indicate examples of hemorrhage.
Paraffin sections were deparaffinized, incubated with proteinase K (Invitrogen), heated at 95° C. for 20 min in citrate buffer (pH 6), and treated with peroxidase blocking reagent (Dako). Sections were incubated with a monoclonal antibody against Glucose Transporter-1 (Glut-1, Dako) followed by a biotin-conjugated secondary antibody (Pierce). A third layer consisting of HRP-conjugated anti-biotin (DAKO) was followed by diaminobenzidine (Sigma) staining. Sections were counterstained with eosin.
Two independent tests of this hypothesis were performed. First, we directly assessed hypoxia within tumors by staining with an antibody to Glucose Transporter-1 (Glut-1). Glut-1 has been extensively studied and shown to be specifically expressed only in hypoxic regions (Airley et al., 2001).

[4] = tested on: C. novyi-NT; assay: Quantification of C. novyi-NT in tumors by real-time PCR; format: in vivo, C. novyi-NT in mice bearing HCT116 xenografts; details: versus spores without drug; HCT116 xenografts; SD printed +/−0.08 (HTI-286), +/−0.3 (docetaxel)
Protocol: Mice bearing HCT116 xenografts were treated with C. novyi-NT spores with or without HTI-286 (1.7 mg/kg) as described above. Following euthanasia 24-48 hr later, tumors were harvested, weighed, minced, and Dounce-homogenized. Genomic DNA was isolated using the Qiagen Genomic DNA Buffer Set and Genomic-tip 100/G. 25 ng of DNA was used in a PCR using the conditions described in (Vogelstein and Kinzler, 1999) The following primers specific for the C. novyi-NT phospholipase C gene were used: 5′-[…] (SEQ ID NO:1) and 5′-[…] (SEQ ID NO:2). No detectable primer dimers formed and no nonspecific amplification of mouse or xenograft genomic DNA occurred with these primers and PCR conditions. Real-time PCR was performed using an iCycler, and threshold cycle numbers were calculated using the iCycler Optical system interface software (Bio-Rad Lab, Hercules, Calif.). Averages of the threshold cycle number (Ct) of triplicate measurements per tumor were obtained, and three different tumors were studied for each treatment group. The results were expressed as the difference between the Ct of the treated tumor and the Ct of untreated controls, normalized to tumor weight.
Second, we directly tested the size of bacterial populations within tumors by measuring the number of bacteria at various times following intravenous injection of C. novyi-NT spores into mice bearing HCT116 xenografts. […]

## CN[C@H](C(=O)N[C@H](C(=O)N(C)[C@H](/C=C(\C)C(=O)O)C(C)C)C(C)(C)C)C(C)(C)c1ccccc1 [HTI-286, N,β,β-trimethyl-L-phenylalanyl-N^1-[(1S,2E)-3-carboxy-1-isopropylbut-2-enyl]-N^1,3-dimethyl-L-valinamide]
[1]
  effects on tumor growth when administered without the other agent: no significant effects on tumor growth
[2]
  blood flow to the tumors (Hoechst 33342 labelling): almost completely inhibited
[3]
  Glut-1 expression (hypoxia marker) in tumors: large amounts of Glut-1
[4]
  increase in number of C. novyi-NT bacteria in tumor when co-injected with drug: 6.8 fold
